Drawing on patent US20100130737A1, “Regulating Agent of GPR34 Receptor Function” (TAKEDA PHARMACEUTICAL COMPANY LIMITED, priority 2005, published 2010), this text covers melting point for 36 compounds.

Counter-ions that a name gives are not always drawn.

As a reminder, the melting point is the temperature, or range, at which the solid turns liquid.

`O=C(N[C@@H](Cc1ccc(OCC2CC2)cc1)C(=O)O)c1cn2cc(-c3ccc(Cl)cc3)ccc2n1` [Example E17, N-{[6-(4-Chlorophenyl)imidazo[1,2-a]pyridin-2-yl]carbonyl}-O-(cyclopropylmethyl)tyrosine] gave a melting point of 276 °C.

With `N[C@H](Cc1c[nH]c2ccccc12)C(=O)NC1(C(=O)O)Cc2ccc(-c3ccc(Cl)cc3)cc2C1` (stereo partly drawn) (as salt: hydrochloride) [Example B122, 5-(4-Chlorophenyl)-2-(D-tryptophylamino)indan-2-carboxylic acid hydrochloride], the melting point fell in the range of 168 to 170 °C. Under `Cc1cccc(COc2ccc(C[C@H](NC(=O)c3cc4ccc(-c5ccc(Cl)cc5)cc4o3)C(=O)O)cc2)c1` [Example C154, N-{[6-(4-Chlorophenyl)-1-benzofuran-2-yl]carbonyl}-O-(3-methylbenzyl)tyrosine] stands 157 to 158 °C.

For the compound `O=C(NC(Cc1ccc(OCc2ccc(F)cc2)cc1)C(=O)O)c1cn2cc(-c3ccc(Cl)cc3)ccc2n1` (stereo not drawn) [Example E7], the melting point came to 267 °C. For `CC(C)Oc1ccc(-c2ccc3sc(C(=O)N[C@@H](Cc4ccc(OCc5ccc(F)cc5)cc4)C(=O)O)cc3c2)cc1` [Example C130, O-(4-Fluorobenzyl)-N-{[5-(4-isopropoxyphenyl)-1-benzothiophene-2-yl]carbonyl}tyrosine], the melting point was 204 to 205 °C.

`O=C(N[C@@H](Cc1ccc(OCc2ccccc2)cc1)C(=O)O)c1cn2cc(-c3ccc(Cl)cc3)cnc2n1` [Example E4, O-Benzyl-N-{[6-(4-chlorophenyl)imidazo[1,2-a]pyrimidin-2-yl]carbonyl}tyrosine] gave a melting point of 252 to 253 °C. `O=C(CCSc1ccc2ccccc2c1)NC1(C(=O)O)Cc2ccc(-c3ccc(Cl)cc3)cc2C1` (stereo not drawn) [Example B172, 5-(4-Chlorophenyl)-2-{[3-(2-naphthylthio)propanoyl]amino}indan-2-carboxylic acid] gave a melting point of 215 °C.

In turn, `O=C(CSc1nc2ccccc2s1)NC1(C(=O)O)Cc2ccc(-c3ccc(Cl)cc3)cc2C1` (stereo not drawn) [Example B117, 2-{[(1,3-Benzothiazol-2-ylthio)acetyl]amino}-5-(4-chlorophenyl)indan-2-carboxylic acid] gave a melting point of 205 to 207 °C. Turning to `O=C(CN1CCN(C(c2ccc(F)cc2)c2ccc(F)cc2)CC1)NC1(C(=O)O)Cc2ccc(-c3ccc(Cl)cc3)cc2C1` (stereo not drawn) [Example B128, 2-[({4-[bis(4-Fluorophenyl)methyl]piperazine-1-yl)acetyl)amino]-5-(4-chlorophenyl)indan-2-carboxylic acid], the melting point was found to be 184 °C.

With `O=C(N[C@@H](Cc1ccc(OCc2ccoc2)cc1)C(=O)O)c1cn2ccc(-c3ccc(Cl)cc3)cc2n1` [Example E33, N-{[7-(4-Chlorophenyl)imidazo[1,2-a]pyridin-2-yl]carbonyl}-O-(3-furylmethyl)tyrosine], the melting point was 243 °C. Under `O=C(N[C@@H](Cc1ccc(OCc2ccccc2)cc1)C(=O)O)c1cn2cc(/C=C/c3ccccc3)ccc2n1` [Example E34, O-Benzyl-N-({6-[(E)-2-phenylethenyl]imidazo[1,2-a]pyridin-2-yl}carbonyl)tyrosine] stands 262 to 263 °C; under `O=C(N[C@@H](Cc1ccc(F)cc1)C(=O)O)c1cn2cc(-c3ccc(Cl)cc3)ccc2n1` [Example E11, N-{[6-(4-Chlorophenyl)imidazo[1,2-a]pyridin-2-yl]carbonyl}-4-fluorophenylalanine], 266 °C; under `O=C(NC(Cc1ccc(OCc2ccc(F)cc2)cc1)C(=O)O)c1nc2ccc(-c3ccc(Cl)cc3)cc2[nH]1` (stereo not drawn) [Example C168], 258 to 259 °C.

Turning to `Cc1noc(C)c1COc1ccc(CC(=O)NC2(C(=O)O)Cc3ccc(-c4ccc(Cl)cc4)cc3C2)cc1` (stereo not drawn) [Example B165], the melting point lay in the range of 200 to 201 °C. As for `Cc1cccc(COc2ccc(C[C@H](NC(=O)c3cc4cc(-c5ccc(Cl)cc5)ccc4s3)C(=O)O)cc2)c1` [Example C127, N-{[5-(4-Chlorophenyl)-1-benzothiophene-2-yl]carbonyl}-O-(3-methylbenzyl)tyrosine], the figure is 192 to 193 °C; as for `O=C(NC1(C(=O)O)Cc2ccc(-c3ccc(Cl)cc3)cc2C1)c1ccc(F)cc1` (stereo not drawn) [Example B133, 5-(4-Chlorophenyl)-2-[(4-fluorobenzoyl)amino]indan-2-carboxylic acid], 251 °C. As for `O=C(N[C@@H](Cc1ccc(OCc2ccoc2)cc1)C(=O)O)c1cc2ccc(-c3ccc(Cl)cc3)cc2o1` [Example C151, N-{[6-(4-Chlorophenyl)-1-benzofuran-2-yl]carbonyl}-O-(3-furylmethyl)tyrosine], the figure is 159 to 160 °C; as for `O=C(N[C@@H](Cc1ccc(OCc2ccccc2)cc1)C(=O)O)c1ccc2nc(-c3ccc(Cl)cc3)c(Cl)n2c1` [Example E50, O-Benzyl-N-{[3-chloro-2-(4-chlorophenyl)imidazo[1,2-a]pyridin-6-yl]carbonyl}tyrosine], 241 to 243 °C; as for `O=C(NC(Cc1ccc(OCc2ccc(Cl)cc2)cc1)C(=O)O)c1cc2cc(C#Cc3ccccc3)ccc2s1` (stereo not drawn) [Example C141, O-(4-Chlorolbenzyl)-N-{[5-(phenylethynyl)-1-benzothiophene-2-yl]carbonyl)tyrosine], 216 to 221 °C. Consider `O=C(Cc1ccccn1)NC1(C(=O)O)Cc2ccc(-c3ccc(Cl)cc3)cc2C1` (stereo not drawn) [Example B178, 5-(4-Chlorophenyl)-2-[(pyridin-2-ylacetyl)amino]indan-2-carboxylic acid], for which the melting point worked out at 189 °C. Under `Cc1c(-c2ccc(Cl)cc2)nc2ccc(C(=O)N[C@@H](Cc3ccc(OCc4ccccc4)cc3)C(=O)O)cn12` [Example E55, O-Benzyl-N-{[2-(4-chlorophenyl)-3-methylimidazo[1,2-a]pyridin-6-yl]carbonyl}tyrosine] stands 244 to 245 °C. With `O=C(NC(Cc1ccc(OCc2ccccc2)cc1)C(=O)O)c1cn2cc(-c3ccc(OC(F)(F)F)cc3)ccc2n1` (stereo not drawn) [Example E44], the melting point was in the range of 270 to 271 °C. Regarding `O=C(Cc1ccc(Oc2ccsc2)cc1)NC1(C(=O)O)Cc2ccc(-c3ccc(Cl)cc3)cc2C1` (stereo not drawn) [Example B164, 5-(4-Chlorophenyl)-2-({[4-(3-thienyloxy)phenyl]acetyl}amino)indan-2-carboxylic acid], the melting point lay in the range of 226 to 228 °C. In turn, `Cc1c(C(=O)NC(Cc2ccc(OCc3ccc(F)cc3)cc2)C(=O)O)oc2cc(-c3ccc(Cl)cc3)ccc12` (racemic) [Example C117, N-{[6-(4-Chlorophenyl)-3-methyl-1-benzofuran-2-yl]carbonyl}-O-(4-fluorobenzyl)-DL-tyrosine] showed a melting point of 147 to 149 °C.

As for `Cc1cccc(COc2ccc(C[C@H](NC(=O)c3cn4ccc(-c5ccc(Cl)cc5)cc4n3)C(=O)O)cc2)c1` [Example E60, N-{[7-(4-Chlorophenyl)imidazo[1,2-a]pyridin-2-yl]carbonyl}-O-(3-methylbenzyl)tyrosine], the melting point is 245 to 246 °C. As for `O=C(Cc1ccc(OCc2ccc(F)cc2)cc1)NC1(C(=O)O)Cc2ccc(-c3ccccc3Cl)cc2C1` (stereo not drawn) [Example B184, 5-(2-Chlorophenyl)-2-[({4-[(4-fluorobenzyl)oxy]phenyl}acetyl}amino}indan-2-carboxylic acid], the melting point is 213 to 215 °C. Under `CCc1ccc(COc2ccc(C[C@H](NC(=O)c3cc4cc(-c5ccc(Cl)cc5)ccc4s3)C(=O)O)cc2)cc1` [Example C137, N-{[5-(4-Chlorophenyl)-1-benzothiophene-2-yl]carbonyl}-O-(4-ethylbenzyl)tyrosine] stands 205 °C; under `Cc1nc(COc2ccc(CC(=O)NC3(C(=O)O)Cc4ccc(-c5ccc(Cl)cc5)cc4C3)cc2)cs1` (stereo not drawn) [Example B152], 209 to 210 °C; under `N#Cc1ccc(COc2ccc(C[C@H](NC(=O)c3cc4cc(-c5ccc(Cl)cc5)ccc4s3)C(=O)O)cc2)cc1` [Example C136, N-{[5-(4-Chlorophenyl)-1-benzothiophene-2-yl]carbonyl)-O-(4-cyanobenzyl)tyrosine], 164 °C. On to `O=C(O)CCNC(=O)C1(NC(=O)Cc2ccc(OCc3ccc(F)cc3)cc2)Cc2ccc(-c3ccc(Cl)cc3)cc2C1` (stereo not drawn) [Example B150, N-({5-(4-Chlorophenyl)-2-[({4-[(4-fluorobenzyl)oxy]phenyl}acetyl)amino]-2,3-dihydro-1H-inden-2-yl)carbonyl)-O-alanine], for which the melting point amounted to 214 °C. `O=C(Cc1cccc(OCc2ccccc2)c1)NC1(C(=O)O)Cc2ccc(-c3ccc(Cl)cc3)cc2C1` (stereo not drawn) [Example B181, 2-({[3-(Benzyloxy)phenyl]acetyl}amino)-5-(4-chlorophenyl)indan-2-carboxylic acid] registered a melting point of 207 °C. As for `Cc1cccc(C)c1-c1ccc2c(c1)CC(NC(=O)Cc1ccc(OCc3ccc(F)cc3)cc1)(C(=O)O)C2` (stereo not drawn) [Example B160, 5-(2,6-Dimethylphenyl)-2-[({4-[(4-fluorobenzyl)oxy]phenyl}acetyl)amino]indan-2-carboxylic acid], the figure is 210 to 212 °C; as for `Cc1ccc(COc2ccc(C[C@H](NC(=O)c3cc4cc(C#Cc5ccccc5)ccc4s3)C(=O)O)cc2)cc1` [Example C140, O-(4-Methylbenzyl)-N-{[5-(phenylethynyl)-1-benzothiophene-2-yl]carbonyl}tyrosine], 204 to 207 °C; as for `Cc1nc(COc2ccc(CC(=O)NC3(C(=O)O)Cc4ccc(-c5ccc(Cl)cc5)cc4C3)cc2)co1` (stereo not drawn) [Example B156, 5-(4-Chlorophenyl)-2-[({4-[(2-methyl-1,3-oxazol-4-yl)methoxy]phenyl}acetyl)amino]indan-2-carboxylic acid], 187 to 189 °C. For the compound `O=C(NC(Cc1ccc(OCc2ccc(F)cc2)cc1)C(=O)O)c1cn2ccc(C#Cc3ccccc3)cc2n1` (stereo not drawn) [Example E62], the melting point is 243 °C (dec.).

In turn, `CC(C(=O)NC1(C(=O)O)Cc2ccc(-c3ccc(Cl)cc3)cc2C1)c1ccccc1` (stereo not drawn) [Example B139, 5-(4-Chlorophenyl)-2-[(2-phenylpropanoyl)amino]indan-2-carboxylic acid] showed a melting point of 200 to 201 °C.
